Here are results for nine molecules from patent publication US5393761A, “3-arylindole compounds” (H. Lundbeck A/S, priority 1990, dated 1995).

Molecules are shown by their SMILES. Where a name gives a salt, the structure may show the parent alone.

For experiment [1] the following is noted: literature (Ceulemans et al. 1985); cited from earlier work.
For experiment [2], the target named is T1, serotonin S2 (5-HT2) receptors in rat cortex (Rattus norvegicus, UniProt P14842).
T1 construct: Serotonin S2 (5-HT2) receptors in membranes from rat; from tissue; host or cells: cerebral cortex membranes of male Wistar rats (printed 'conical tissue', a misprint for cortical)
T1 sequence (P14842 whole entry): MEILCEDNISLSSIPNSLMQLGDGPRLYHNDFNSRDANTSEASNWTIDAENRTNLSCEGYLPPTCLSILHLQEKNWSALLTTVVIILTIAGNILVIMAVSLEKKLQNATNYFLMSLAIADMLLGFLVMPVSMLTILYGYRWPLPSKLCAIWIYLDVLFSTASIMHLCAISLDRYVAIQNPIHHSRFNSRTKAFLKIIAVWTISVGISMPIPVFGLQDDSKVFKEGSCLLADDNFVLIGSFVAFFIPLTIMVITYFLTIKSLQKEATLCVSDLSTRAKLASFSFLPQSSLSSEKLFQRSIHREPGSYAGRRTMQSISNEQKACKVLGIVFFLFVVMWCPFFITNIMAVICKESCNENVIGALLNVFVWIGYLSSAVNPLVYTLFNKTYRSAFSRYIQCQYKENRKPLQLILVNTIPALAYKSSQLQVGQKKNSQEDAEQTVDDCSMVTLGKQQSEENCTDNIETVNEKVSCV
The experiment can be described thus: Inhibition of ^3H-ketanserin binding to serotonin S2 (5-HT2) receptors in rat cortex in vitro. The settings on record: 0.5 nM ^3H-ketanserin, rat cortex membranes, 37° C., 30 min. On the procedure: Method in Hyttel, Pharmacology & Toxicology, 61, 126-129, 1987.
Male Wistar (Mol:Wist) rats (125-250 g) are sacrificed and conical tissue is dissected and weighed. The tissue is homogenized (Ultra Turrax, 10 sec.) in 10 ml of ice-cold 50 mM tris buffer pH 7.7 (at 25° C.). The centrifuge glassware used in this step has been rinsed by sonication for 10 min. in ethanol. The homogenate is centrifuged twice at 20,000 g for 10 min. at 4° C. with rehomogenization of the pellet in 10 ml ice-cold buffer. The final pellet is homogenized in 500 vol (w/v)ice-cold buffer.
Incubation tubes kept on ice in triplicate receive 100 μl Of drug solution in water (or water for total binding) and 2000 μl of tissue suspension (final tissue content corresponds to 4 mg original tissue). […] After incubation for 30 min. the samples are filtered under vacuum (0-50 mBar) through Whatman GF/F filters (25 mm). The tubes are rinsed with 5 ml ice-cold buffer which are then poured on the filters. Thereafter, the filters are washed with 2×5 ml of buffer. The filters are placed in counting vials and 4 ml of appropriate scintillation fluid (e.g. Picofluor ™15) are added. After shaking for 1 h and storage 2 hrs in the dark the content of radioactivity is determined by liquid scintillation counting. Specific binding is obtained by subtracting the nonspecific binding in the presence of 1 μM mianserin. For determination of the inhibition of binding five concentrations of drugs covering 3 decades are used.
The IC50 value is determined as the concentration at which the binding is 50% of the total binding in control samples minus the nonspecific binding in the presence of 1 μM mianserin.

The target in experiment [3] is dopamine D-2 receptors in rat corpus striatum (Rattus norvegicus, UniProt P61169). The experiment can be described thus: Inhibition of ^3H-spiperone (spiroperidol) binding to dopamine D-2 receptors in rat corpus striatum in vitro. Conditions: 0.5 nM ^3H-spiperone, rat striatum membranes, 37° C., 10 min. As for the experimental part: By this method the inhibition by drugs of the binding of ^3 H-spiperone (=^3 H-spiroperidol) (0.5 nM) to dopamine D-2 receptors in membranes from rat corpus striatum is determined in vitro. Method and results in Hyttel & Larsen, J. Neurochem, 44, 1615-1622, 1985).
Sequence of dopamine D-2 receptors in rat corpus striatum (P61169 whole entry): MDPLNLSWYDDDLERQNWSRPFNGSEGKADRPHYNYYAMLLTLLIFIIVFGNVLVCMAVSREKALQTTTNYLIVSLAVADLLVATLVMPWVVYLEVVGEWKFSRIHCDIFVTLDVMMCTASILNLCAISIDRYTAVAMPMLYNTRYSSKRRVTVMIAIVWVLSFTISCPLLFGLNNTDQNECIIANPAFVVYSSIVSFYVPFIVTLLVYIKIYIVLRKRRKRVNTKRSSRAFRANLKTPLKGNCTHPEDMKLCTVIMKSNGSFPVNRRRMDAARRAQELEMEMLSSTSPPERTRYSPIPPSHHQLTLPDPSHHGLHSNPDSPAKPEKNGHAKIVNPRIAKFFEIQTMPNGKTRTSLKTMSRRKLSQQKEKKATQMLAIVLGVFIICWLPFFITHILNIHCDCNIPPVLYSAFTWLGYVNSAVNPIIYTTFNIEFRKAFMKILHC
Male Wistar (Mol:Wistar) rats (125-250 g) are sacrificed and striatal tissue is dissected and weighed. The tissue is homogenized (Ultra Turrax, 10 sec.) in 10 ml of ice-cold 50 mM K-phosphate buffer pH 7.4 (at 25° C.). The homogenate is centrifuged twice at 20,000 g for 10 min. at 4° C. with rehomogenization of the pellet in 10 ml ice-cold buffer. The final pellet is homogenized in 1300 vol (w/v) ice-cold buffer.
Incubation tubes kept on ice in triplicate receive 100 μl of drug solution in water (or water for total binding) and 4000 μl Of tissue suspension (final tissue content corresponds to 3.08 mg original tissue). The binding experimental is initiated by addition of 100 μl of ^3 H-spiperone (final concentration 0.5 nM) and by placing the tubes in a 37° C. water bath. After incubation for 10 min. the samples are filtered under vacuum (0-50 mBar) through Whatman GF/F filters (25 mm). The tubes are rinsed with 5 ml ice-cold buffer which are then poured on the filters. Thereafter, the filters are washed with 2×5 ml of buffer. The filters are placed in counting vials and 4 ml of appropriate scintillation fluid (e.g. Picofluor ™15) are added. After shaking for 1 h and storage 2 hrs in the dark the content of radioactivity is determined by liquid scintillation counting. Specific binding is obtained by subtracting the nonspecific binding in the presence of 10 μM of 6,7-ADTN.
For determination of the inhibition of binding five concentrations of drugs covering 3 decades are used.
The measured cpm are plotted against drug concentration on semilogarithmic paper and the best fitting S-shaped curve is drawn. […] England, specific activity 15-25 Ci/mmol.

The conditions of experiment [4]: literature (Klieser, Strauss 1988); cited from earlier work.
The conditions of experiment [5]: literature (Colpart et al. 1985); cited from earlier work.
For experiment [6] the following is noted: literature (Janssen 1988); cited from earlier work.
The conditions of experiment [7]: literature (Bersani et al. 1990); cited from earlier work.

As to `Cc1nc2n(c(=O)c1CCN1CCC(C(=O)c3ccc(F)cc3)CC1)CCS2` [setoperone], in experiment [1], the “improvement of negative symptoms of schizophrenia (in words)” value is “blockade of 5-HT2 receptors may be related to improvement of negative symptoms of schizophrenia”.
For the molecule `O=C1NCCN1CCN1CCC(n2cc(-c3ccc(F)cc3)c3ccccc32)CC1` [Compound 4k, 3-(4-Fluorophenyl)-1-[1-[2-(imidazolidin-2-on-1-yl)ethyl]-4-piperidyl]-1H-indole], the figures for the concentration for half-maximal inhibition (IC50) in experiment [2] and in experiment [3] were 3.1 nM and 120 nM, respectively.
For the molecule `Cc1nc2sccn2c(=O)c1CCN1CCC(=C(c2ccc(F)cc2)c2ccc(F)cc2)CC1` [Ritanserin], the “antidepressant effect and depressive symptoms of schizophrenia (in words)” value in experiment [4] is “shown to be an antidepressant and to improve depressive symptoms of schizophrenia”. The “anxiolytic-like effect (in words)” value in experiment [5] is listed as “exert effects in an animal test reminiscent of anxiolytic drug activity”. Further, in experiment [6], the “quality of sleep (in words)” value is on record as “shown to improve the quality of sleep”. Further, in experiment [7], the “relief of neuroleptic-induced parkinsonism (in words)” value is “found to relieve neuroleptic-induced parkinsonism”.
For the molecule `Cc1ccc2c(c1)c(-c1ccc(F)cc1)cn2C1CCN(CCN2CCCC2=O)CC1` [Compound 4j, 3-(4-Fluorophenyl)-5-methyl-1-[1-[2-(2-pyrrolidinon-1-yl)ethyl]-4-piperidyl]-1H-indole, oxalate], the half-maximal inhibitory concentration (IC50) in experiment [2] was 4.5 nM; in experiment [3] it was 1200 nM.
With `CC(C)N1CCN(CCN2CCC(n3cc(-c4ccc(F)cc4)c4cc(F)ccc43)CC2)C1=O` [Compound 4n, 5-Fluoro-3-(4-fluorophenyl)-1-[1-[2-[3-(2-propyl)imidazolidin-2-on-1-yl]ethyl]-4-piperidyl]-1H-indole], the figures for the IC50 in experiment [2] and in experiment [3] were 3.1 nM and 190 nM, respectively.
As for `Cc1ccc2c(c1)c(-c1ccc(F)cc1)cn2C1=CCN(CCN2CCNC2=O)CC1` [Compound 6c, 3-(4-Fluorophenyl)-1-[1-[2-(imidazolidin-2-on-1-yl)ethyl]-1,2,3,6-tetrahydropyridin-4-yl]-5-methyl-1H-indole], the half-maximal inhibitory concentration (IC50) in experiment [2] came to 1.4 nM; in experiment [3], 320 nM.
For `Cc1ccc2c(c1)c(-c1ccc(F)cc1)c(C)n2C1CCN(CCN2CCNC2=O)CC1` [Compound 7a, 2,5-Dimethyl-3-(4-fluorophenyl)-1-[1-[2-(imidazolidin-2-on-1-yl)ethyl]-4-piperidyl]-1H-indole] the same measures were 3.4 nM and 6900 nM.
In the case of `Cc1ccc2c(c1)c(-c1ccc(F)cc1)c(Cl)n2C1CCN(CCN2CCN(C(C)C)C2=O)CC1` [Compound 27a, 2-Chloro-3-(4-fluorophenyl)-5-methyl-1-[1-[2-[3-(2-propyl)imidazolidin-2-on-1-yl]ethyl]-4-piperidyl]-1H-indole], the IC50 turned out to be 10 nM in experiment [2] and 3200 nM in experiment [3].
For `Cc1ccc2c(c1)c(-c1ccc(F)cc1)cn2C1CCN(CCNC(=S)N(C)C)CC1` [Compound 13a, 1-[1-[2-(3,3-Dimethyl-1-thioureido)ethyl]-4-piperidyl]-3-(4-fluorophenyl)-5-methyl-1H-indole], the half-inhibitory concentration (IC50) in experiment [2] worked out at 3.7 nM; in experiment [3], 250 nM.
